Results as given in PubChem BioAssay (NCI).
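Interpolation was linear, between the two tested concentrations surrounding the appropriate level; five concentrations were tested over 48 hours in 96-well plates. Here, GI50 denotes the concentration required for 50% inhibition of growth. TGI denotes the concentration required for complete inhibition of growth.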

How the values were obtained:
Assay in all cases: NCI tumour cell line growth inhibition, 48 h; in the data active means GI50 below about 0.43 µM; inactive means the rest
BT-549 breast = test system: BT-549 breast
NCI-H23 lung = test system: NCI-H23 lung
LOX IMVI melanoma = test system: LOX IMVI melanoma
OVCAR-8 ovarian = test system: OVCAR-8 ovarian
NCI/ADR-RES ovarian = test system: NCI/ADR-RES ovarian
NCI-H522 lung = test system: NCI-H522 lung
MALME-3M melanoma = test system: MALME-3M melanoma
HT29 colon = test system: HT29 colon
HCT-116 colon = test system: HCT-116 colon
SNB-75 CNS = test system: SNB-75 CNS
HS 578T breast = test system: HS 578T breast
PC-3 prostate = test system: PC-3 prostate
SK-MEL-2 melanoma = test system: SK-MEL-2 melanoma
SR leukemia = test system: SR leukemia
SK-MEL-28 melanoma = test system: SK-MEL-28 melanoma
U251 CNS = test system: U251 CNS
SF-295 CNS = test system: SF-295 CNS
HCC-2998 colon = test system: HCC-2998 colon
COLO 205 colon = test system: COLO 205 colon
MDA-MB-231 breast = test system: MDA-MB-231 breast
SN12C renal = test system: SN12C renal
HCT-15 colon = test system: HCT-15 colon
KM12 colon = test system: KM12 colon
IGROV1 ovarian = test system: IGROV1 ovarian
786-0 renal = test system: 786-0 renal
OVCAR-3 ovarian = test system: OVCAR-3 ovarian
SK-MEL-5 melanoma = test system: SK-MEL-5 melanoma
SNB-19 CNS = test system: SNB-19 CNS
K-562 leukemia = test system: K-562 leukemia
DU-145 prostate = test system: DU-145 prostate
SW-620 colon = test system: SW-620 colon
HOP-92 NSCLC = test system: HOP-92 NSCLC
RXF 393 renal = test system: RXF 393 renal
MDA-MB-435 = test system: MDA-MB-435
SF-268 CNS = test system: SF-268 CNS
MOLT-4 leukemia = test system: MOLT-4 leukemia
UACC-62 melanoma = test system: UACC-62 melanoma
CAKI-1 renal = test system: CAKI-1 renal
T-47D breast = test system: T-47D breast
UO-31 renal = test system: UO-31 renal
HL-60(TB) leukemia = test system: HL-60(TB) leukemia
SF-539 CNS = test system: SF-539 CNS
A498 renal = test system: A498 renal
CCRF-CEM leukemia = test system: CCRF-CEM leukemia
HOP-62 NSCLC = test system: HOP-62 NSCLC
TK-10 renal = test system: TK-10 renal
A549 NSCLC = test system: A549 NSCLC
UACC-257 melanoma = test system: UACC-257 melanoma
OVCAR-5 ovarian = test system: OVCAR-5 ovarian
NCI-H460 lung = test system: NCI-H460 lung
MCF7 breast = test system: MCF7 breast
M14 melanoma = test system: M14 melanoma
SK-OV-3 ovarian = test system: SK-OV-3 ovarian
ACHN renal = test system: ACHN renal
NCI-H226 lung = test system: NCI-H226 lung
RPMI-8226 leukemia = test system: RPMI-8226 leukemia
OVCAR-4 ovarian = test system: OVCAR-4 ovarian
EKVX NSCLC = test system: EKVX NSCLC

O=[N+]([O-])c1cnc(Sc2ccncn2)c([N+](=O)[O-])c1
24.9 µM: TGI (MCF7 breast)
3.27 µM: TGI (ACHN renal)
32.9 µM: TGI (SK-MEL-2 melanoma)
3.58 µM: TGI (COLO 205 colon)
3.07 µM: TGI (CAKI-1 renal)
31.1 µM: TGI (SK-OV-3 ovarian)
3.38 µM: TGI (UACC-257 melanoma)
65.3 µM: TGI (A498 renal)
3.61 µM: TGI (MALME-3M melanoma)
57.2 µM: TGI (HS 578T breast)
3.17 µM: TGI (OVCAR-3 ovarian)
37.7 µM: TGI (NCI-H23 lung)
4.47 µM: TGI (CCRF-CEM leukemia)
4.45 µM: TGI (SW-620 colon)
3.8 µM: TGI (T-47D breast)
inactive: GI50 (BT-549 breast) 15.2 µM | GI50 (NCI-H23 lung) 14.3 µM | GI50 (LOX IMVI melanoma) 3.1 µM | GI50 (OVCAR-8 ovarian) 11.7 µM | GI50 (NCI/ADR-RES ovarian) 16.6 µM | GI50 (NCI-H522 lung) 1.82 µM | GI50 (MALME-3M melanoma) 1.83 µM | GI50 (HT29 colon) 9.75 µM | GI50 (HCT-116 colon) 1.84 µM | GI50 (SNB-75 CNS) 14.4 µM | GI50 (HS 578T breast) 19.2 µM | GI50 (PC-3 prostate) 15.1 µM | GI50 (SK-MEL-2 melanoma) 16.8 µM | GI50 (SR leukemia) 2.67 µM | GI50 (SK-MEL-28 melanoma) 15.6 µM | GI50 (U251 CNS) 29.4 µM | GI50 (SF-295 CNS) > 100 µM | GI50 (HCC-2998 colon) 18.4 µM | GI50 (COLO 205 colon) 1.98 µM | GI50 (MDA-MB-231 breast) 14.8 µM | GI50 (SN12C renal) 16 µM | GI50 (HCT-15 colon) 2.78 µM | GI50 (KM12 colon) 20.9 µM | GI50 (IGROV1 ovarian) 16.7 µM | GI50 (786-0 renal) 12.2 µM | GI50 (OVCAR-3 ovarian) 1.76 µM | GI50 (SK-MEL-5 melanoma) 14.3 µM | GI50 (SNB-19 CNS) 32.8 µM | GI50 (K-562 leukemia) 2.85 µM | GI50 (DU-145 prostate) 16.7 µM | GI50 (SW-620 colon) 2.19 µM | GI50 (HOP-92 NSCLC) 2.51 µM | GI50 (RXF 393 renal) 1.97 µM | GI50 (MDA-MB-435) 4.91 µM | GI50 (SF-268 CNS) 16 µM | GI50 (MOLT-4 leukemia) 3.24 µM | GI50 (UACC-62 melanoma) 10.5 µM | GI50 (CAKI-1 renal) 1.6 µM | GI50 (T-47D breast) 1.78 µM | GI50 (UO-31 renal) 1.55 µM | GI50 (HL-60(TB) leukemia) 23.1 µM | GI50 (SF-539 CNS) 15.3 µM | GI50 (A498 renal) 24.9 µM | GI50 (CCRF-CEM leukemia) 1.21 µM | GI50 (HOP-62 NSCLC) 14.6 µM | GI50 (TK-10 renal) 1.74 µM | GI50 (A549 NSCLC) 32.6 µM | GI50 (UACC-257 melanoma) 1.78 µM | GI50 (OVCAR-5 ovarian) 16.3 µM | GI50 (NCI-H460 lung) 23 µM | GI50 (MCF7 breast) 5.96 µM | GI50 (M14 melanoma) 5.81 µM | GI50 (SK-OV-3 ovarian) 16.9 µM | GI50 (ACHN renal) 1.77 µM
36.2 µM: TGI (HCC-2998 colon)
> 100 µM: TGI (SR leukemia) | TGI (U251 CNS) | TGI (SF-295 CNS) | TGI (SNB-19 CNS) | TGI (A549 NSCLC)
25 µM: TGI (OVCAR-8 ovarian) | TGI (786-0 renal)
19 µM: TGI (M14 melanoma)
62.9 µM: TGI (HL-60(TB) leukemia)
49.4 µM: TGI (NCI-H460 lung)
28.9 µM: TGI (BT-549 breast) | TGI (SF-539 CNS)
29.7 µM: TGI (SK-MEL-28 melanoma)
31.7 µM: TGI (OVCAR-5 ovarian)
28.1 µM: TGI (HOP-62 NSCLC)
28 µM: TGI (SK-MEL-5 melanoma)
18.1 µM: TGI (MDA-MB-435)
3.45 µM: TGI (NCI-H522 lung)
22.3 µM: TGI (UACC-62 melanoma)
10.6 µM: TGI (LOX IMVI melanoma)
29.9 µM: TGI (SN12C renal) | TGI (K-562 leukemia)
3.21 µM: TGI (TK-10 renal)
6.53 µM: TGI (HOP-92 NSCLC)
2.98 µM: TGI (UO-31 renal)
3.59 µM: TGI (HCT-116 colon)
55.1 µM: TGI (KM12 colon)
11.2 µM: TGI (HCT-15 colon)
33.7 µM: TGI (NCI/ADR-RES ovarian)
28.4 µM: TGI (MDA-MB-231 breast)
30.7 µM: TGI (SF-268 CNS)
33.1 µM: TGI (MOLT-4 leukemia)
31.4 µM: TGI (IGROV1 ovarian)
30.5 µM: TGI (DU-145 prostate)
29.2 µM: TGI (PC-3 prostate)
4.17 µM: TGI (RXF 393 renal)
27.7 µM: TGI (SNB-75 CNS)
31.8 µM: TGI (HT29 colon)

CC1=C(C)C(=O)c2c(c(C(=O)c3ccccc3)c3nc4ccccc4n3c2C)C1=O
95.2 µM: TGI (786-0 renal)
inactive: GI50 (BT-549 breast) 54.7 µM | GI50 (NCI-H23 lung) 46.5 µM | GI50 (LOX IMVI melanoma) 69.9 µM | GI50 (OVCAR-8 ovarian) 39.7 µM | GI50 (NCI/ADR-RES ovarian) > 100 µM | GI50 (NCI-H522 lung) > 100 µM | GI50 (HT29 colon) > 100 µM | GI50 (HCT-116 colon) 87.2 µM | GI50 (NCI-H226 lung) > 100 µM | GI50 (SNB-75 CNS) 15.8 µM | GI50 (HS 578T breast) 35.4 µM | GI50 (PC-3 prostate) > 100 µM | GI50 (SK-MEL-2 melanoma) 47.8 µM | GI50 (SR leukemia) > 100 µM | GI50 (RPMI-8226 leukemia) > 100 µM | GI50 (SK-MEL-28 melanoma) > 100 µM | GI50 (U251 CNS) 27.5 µM | GI50 (SF-295 CNS) 38.8 µM | GI50 (HCC-2998 colon) > 100 µM | GI50 (COLO 205 colon) > 100 µM | GI50 (MDA-MB-231 breast) 17.7 µM | GI50 (SN12C renal) > 100 µM | GI50 (HCT-15 colon) > 100 µM | GI50 (KM12 colon) > 100 µM | GI50 (IGROV1 ovarian) 55.2 µM | GI50 (786-0 renal) 26.8 µM | GI50 (OVCAR-3 ovarian) > 100 µM | GI50 (SK-MEL-5 melanoma) > 100 µM | GI50 (SNB-19 CNS) 38.1 µM | GI50 (K-562 leukemia) > 100 µM | GI50 (DU-145 prostate) 63.5 µM | GI50 (SW-620 colon) > 100 µM | GI50 (HOP-92 NSCLC) 26 µM | GI50 (MDA-MB-435) > 100 µM | GI50 (SF-268 CNS) 28.6 µM | GI50 (MOLT-4 leukemia) > 100 µM | GI50 (UACC-62 melanoma) 35 µM | GI50 (CAKI-1 renal) > 100 µM | GI50 (T-47D breast) > 100 µM | GI50 (UO-31 renal) > 100 µM | GI50 (HL-60(TB) leukemia) > 100 µM | GI50 (SF-539 CNS) > 100 µM | GI50 (OVCAR-4 ovarian) > 100 µM | GI50 (A498 renal) > 100 µM | GI50 (CCRF-CEM leukemia) > 100 µM | GI50 (HOP-62 NSCLC) 23.4 µM | GI50 (TK-10 renal) 59.5 µM | GI50 (A549 NSCLC) > 100 µM | GI50 (UACC-257 melanoma) 95 µM | GI50 (OVCAR-5 ovarian) > 100 µM | GI50 (NCI-H460 lung) 63.3 µM | GI50 (MCF7 breast) 70.1 µM | GI50 (M14 melanoma) > 100 µM | GI50 (EKVX NSCLC) 68.2 µM | GI50 (ACHN renal) 37.2 µM
46 µM: TGI (MDA-MB-231 breast)
79.4 µM: TGI (U251 CNS)
> 100 µM: TGI (BT-549 breast) | TGI (NCI-H23 lung) | TGI (LOX IMVI melanoma) | TGI (OVCAR-8 ovarian) | TGI (NCI/ADR-RES ovarian) | TGI (NCI-H522 lung) | TGI (HT29 colon) | TGI (HCT-116 colon) | TGI (NCI-H226 lung) | TGI (HS 578T breast) | TGI (PC-3 prostate) | TGI (SK-MEL-2 melanoma) | TGI (SR leukemia) | TGI (RPMI-8226 leukemia) | TGI (SK-MEL-28 melanoma) | TGI (SF-295 CNS) | TGI (HCC-2998 colon) | TGI (COLO 205 colon) | TGI (SN12C renal) | TGI (HCT-15 colon) | TGI (KM12 colon) | TGI (IGROV1 ovarian) | TGI (OVCAR-3 ovarian) | TGI (SK-MEL-5 melanoma) | TGI (SNB-19 CNS) | TGI (K-562 leukemia) | TGI (DU-145 prostate) | TGI (SW-620 colon) | TGI (MDA-MB-435) | TGI (SF-268 CNS) | TGI (MOLT-4 leukemia) | TGI (UACC-62 melanoma) | TGI (CAKI-1 renal) | TGI (T-47D breast) | TGI (UO-31 renal) | TGI (HL-60(TB) leukemia) | TGI (SF-539 CNS) | TGI (OVCAR-4 ovarian) | TGI (A498 renal) | TGI (CCRF-CEM leukemia) | TGI (TK-10 renal) | TGI (A549 NSCLC) | TGI (UACC-257 melanoma) | TGI (OVCAR-5 ovarian) | TGI (NCI-H460 lung) | TGI (MCF7 breast) | TGI (M14 melanoma) | TGI (EKVX NSCLC) | TGI (ACHN renal)
40.3 µM: TGI (SNB-75 CNS)
87.3 µM: TGI (HOP-92 NSCLC)
57.3 µM: TGI (HOP-62 NSCLC)
